Reference: patent publication US4512986A, “Progrestationally active steroids” (priority 1983, dated 1985)

Key:
[1] = target: T1, Cytosol Progesterone Receptor of the Estrogen-primed Immature Rabbit Uterus (Oryctolagus cuniculus, UniProt P06186); assay: Relative binding affinity for progesterone receptor (competition with 3H-progesterone); set-up: species or system rabbit (New Zealand White); conditions: 16-18 hour incubation, progesterone = 100
T1 construct: cytosol progesterone receptor of the estrogen-primed immature rabbit uterus; tissue Dutchland Laboratories, Inc., Denver, Pa (animals); host or cells: uterus cytosol of estradiol-treated immature female New Zealand White rabbits
T1 sequence (P06186 1-930): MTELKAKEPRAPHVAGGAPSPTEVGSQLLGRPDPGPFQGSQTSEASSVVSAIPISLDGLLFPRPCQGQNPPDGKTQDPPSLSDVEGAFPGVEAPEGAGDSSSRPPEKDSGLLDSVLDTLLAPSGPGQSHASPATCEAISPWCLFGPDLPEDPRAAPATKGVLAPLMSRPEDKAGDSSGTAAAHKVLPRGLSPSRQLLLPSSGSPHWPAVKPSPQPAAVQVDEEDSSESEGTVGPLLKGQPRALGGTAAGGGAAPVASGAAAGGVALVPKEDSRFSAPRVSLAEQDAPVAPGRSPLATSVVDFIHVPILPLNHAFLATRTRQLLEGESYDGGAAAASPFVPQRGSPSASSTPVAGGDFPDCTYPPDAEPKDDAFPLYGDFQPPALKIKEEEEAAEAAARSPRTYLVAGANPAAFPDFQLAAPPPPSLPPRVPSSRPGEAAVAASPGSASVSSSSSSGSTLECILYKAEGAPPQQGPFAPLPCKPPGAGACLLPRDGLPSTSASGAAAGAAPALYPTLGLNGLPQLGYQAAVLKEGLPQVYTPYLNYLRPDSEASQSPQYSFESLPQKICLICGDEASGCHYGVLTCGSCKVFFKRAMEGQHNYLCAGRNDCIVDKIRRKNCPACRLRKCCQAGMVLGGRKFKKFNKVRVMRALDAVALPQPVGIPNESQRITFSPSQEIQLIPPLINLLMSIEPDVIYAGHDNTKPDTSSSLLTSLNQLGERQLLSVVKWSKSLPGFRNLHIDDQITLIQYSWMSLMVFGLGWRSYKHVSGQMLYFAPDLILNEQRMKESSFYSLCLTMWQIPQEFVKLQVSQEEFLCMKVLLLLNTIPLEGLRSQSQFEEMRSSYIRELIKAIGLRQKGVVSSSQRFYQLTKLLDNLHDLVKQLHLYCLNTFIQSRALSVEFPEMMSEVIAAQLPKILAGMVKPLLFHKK
Experimental: RBA values recorded at 0° C. after short incubation times (e.g., 2 hr) mainly reflect differences in the association rate constants of the competing ligands, whereas those measured after long incubation times (e.g., 16 to 24 hr) and/or higher temperatures predominantly are influenced by differences in the dissociation rate constants of the competing ligands. RBA's determined after short incubation times primarily reflect the association of the competitor compared to the natural hormone. Conversely, RBA's measured after long incubation times reflect the dissociation rate of the competitor compared to the natural hormone.
The assay components are combined, allowed to equilibrate, and unbound radioactivity removed by charcoal adsorption.
Animal species. Immature female New Zealand White rabbits weighing 0.8 to 1.0 kg (Dutchland Laboratories, Inc., Denver, Pa).
Pretreatment. Subcutaneous treatment with 15 μg 17β-estradiol/0.6 ml sesame oil each morning (0830 to 0930 hr) for three days. Animals sacrificed 24 hr after final injection.
Tissue. Uterus; each uterus weighed about 1.0 g and two or three uteri were pooled for each assay.
Buffer. (A) 0.01M TES, pH 7.4, 1 mM EDTA, 0.012M thioglycerol and 30% glycerol for cytosol preparation and ^3 H-steroid, unlabeled hormone and compound solutions. (B) 0.01M TES, pH 7.4, 1 mM EDTA and 0.012M thioglycerol for charcoal solution.
Homogenization. Five or six 5-second bursts with 30 second cooling periods between bursts using Brinkman Polytron Pt. 10 at 3.5 rheostat setting.
Temperature. 0°-4° C. for all steps.
Centrifugation. 45,000 rpm for 1 hr, 50 Ti rotor, Beckman L8-80 ultracentrifuge.
Incubation. 16-18 hr at 4°-6° C.
Concentations. 1×10^-10 M to 1×10^-5 M (7 concentrations).
Method. Charcoal adsorption method used to remove unbound radioactivity. Five-tenths ml of dextran-coated charcoal (0.5% Norit A and 0.05% dextran T-70) added to all tubes except total radioactivity tubes (0.5 ml buffer [B] added), tubes vortexed 3-5 sec, allowed to sit for 10 minutes and centrifuged 10 minutes at 2000 rpm in Beckman TJ-6 centrifuge at 0°-4° C.
Data Interpretation. […] The relative binding affinity (RBA) of each compound was calculated by using the following equation. [formula] where

[2] = system: androgen target organs of castrate immature male rats; assay: Anti-androgenic activity in the castrate immature rat assay; format: in vivo; conditions: testosterone alone sc
Experimental: The oral anti-androgenic activity of 6-methyl-6-dehydro-17α-ethynylprogesterone was evaluated in the castrate immature male rat assay [Lerner et al., Proc. Soc. […] The assay is briefly described in the footnotes to Table 11.
*This assay employs castrate immature rats. For methods refer to Lerner,
L. J., A. Bianchi and A. Borman, Proc. Soc.
**Groups of rats (7/group) were given daily injections of 0.3 ml sesame
oil (control) or compound (in 0.3 ml sesame oil) for 7 days. Some groups
also concurrently received progestational compounds by the sc or oral
route of administration in order to evaluate antiandrogenic activity. One
day after the final doses, the animals were sacrificed and the androgen
target organs indicated were weighed.
***Statistically significant (p < 0.05) lower organ weights versus the
testosterone, sc, (400 μg/rat/day) group as determined by Analysis of
Variance coupled with Duncan's Multiple Range Test.

[3] = system: uterine endometrium of estrone-primed immature rabbits; assay: Clauberg assay (progestational activity, McPhail); format: in vivo, rabbit (New Zealand White); conditions: for McPhail Index (0-4) (X ± S.D.): 0 none, 4 maximal

Question: What does the source list for C=C[C@]1(C(C)=O)CC[C@H]2[C@@H]3CC[C@H]4CC(=O)CC[C@]4(C)[C@H]3CC[C@@]21C [5α-Dihydro-17α-vinylprogesterone]?
Answer: RBA ([1]; Assay 2, 5α-dihydro-17α-ethynyl: lot 1): 47%; RBA ([1]; Assay 3, 5α-dihydro-17α-ethynyl: lot 1): 51%

Question: For C#C[C@@]1(C(C)=O)CC[C@H]2[C@@H]3C[C@H](C)C4=CC(=O)CC[C@]4(C)[C@H]3CC[C@@]21C [6α-Methyl-17α-acetylpregn-4-ene-20-yn-3-one], which RBA ([1]; Assay 4) is on record?
Answer: The RBA was 5%.

Question: And the RBA ([1]; Assay 5)?
Answer: Its RBA is 6%.

Question: How did the “Levator Ani weight (X ± S.D.)” value ([2]; 25 μg/rat daily) turn out when C[C@]12CC[C@H]3[C@@H](CCC4=CC(=O)CC[C@@]43C)[C@@H]1CC[C@@H]2O [Testosterone] was run?
Answer: The value was 36 ± 4 mg.

Question: What about the “Seminal Vesicles weight (X ± S.D.)” value ([2]; 25 μg/rat daily) of the same compound?
Answer: Its value is 23 ± 12 mg.

Question: What about the “Ventral Prostate weight (X ± S.D.)” value ([2]; 25 μg/rat daily) of the same compound?
Answer: Its value is 18 + 5 mg.

Question: And the “Levator Ani weight (X ± S.D.)” value ([2]; 100 μg/rat daily)?
Answer: The value was 53 ± 6 mg.

Question: What about the “Seminal Vesicles weight (X ± S.D.)” value ([2]; 100 μg/rat daily) of the same compound?
Answer: The value was 66 ± 6 mg.

Question: And the “Ventral Prostate weight (X ± S.D.)” value ([2]; 100 μg/rat daily)?
Answer: The value was 35 ± 5 mg.

Question: And the “Levator Ani weight (X ± S.D.)” value ([2]; 400 μg/rat daily)?
Answer: The value was 63 ± 14 mg.

Question: What about the “Seminal Vesicles weight (X ± S.D.)” value ([2]; 400 μg/rat daily) of the same compound?
Answer: Its value is 163 ± 43 mg.

Question: What about the “Ventral Prostate weight (X ± S.D.)” value ([2]; 400 μg/rat daily) of the same compound?
Answer: The value was 70 ± 22 mg.

Question: For C#C[C@]1(C(C)=O)CC[C@H]2[C@@H]3C[C@H](C)C4=CC(=O)CC[C@]4(C)[C@H]3CC[C@@]21C [6α-Methyl-17α-ethynylprogesterone, 17α-Ethynyl-6α-methylprogesterone], which RBA ([1]; Assay 4) is on record?
Answer: The RBA was 63%.

Question: And the RBA ([1]; Assay 5)?
Answer: Its RBA is 67%.

Question: And the RBA ([1]; Assay 6)?
Answer: The RBA was 91%.

Question: What about the “potency relative to 6α-methyl-17-acetoxyprogesterone (Provera), in words” value ([3]; both given orally) of the same compound?
Answer: Its value is “at least as twice as potent”.

Question: What about the “progestational potency relative to subcutaneous progesterone, in words” value ([3]; compound given orally, progesterone sc) of the same compound?
Answer: Its value is “four times more potent than progesterone administered subcutaneously”.

Question: What about the “Uterine Weight (X ± S.D.)” value ([3]; oral, 10 μg/rabbit daily) of the same compound?
Answer: The value was 1.28 ± 0.37 g.

Question: What about the “McPhail Index (0-4) (X ± S.D.)” value ([3]; oral, 10 μg/rabbit daily) of the same compound?
Answer: Its value is 0.67 ± 0.42.

Question: And the “Uterine Weight (X ± S.D.)” value ([3]; oral, 25 μg/rabbit daily)?
Answer: Its value is 2.43 ± 0.41 g.

Question: And the “McPhail Index (0-4) (X ± S.D.)” value ([3]; oral, 25 μg/rabbit daily)?
Answer: The value was 2.67 ± 1.00.

Question: And the “Uterine Weight (X ± S.D.)” value ([3]; oral, 50 μg/rabbit daily)?
Answer: Its value is 3.21 ± 0.79 g.

Question: And the “McPhail Index (0-4) (X ± S.D.)” value ([3]; oral, 50 μg/rabbit daily)?
Answer: The value was 3.92 ± 0.12.

Question: What about the “Uterine Weight (X ± S.D.)” value ([3]; oral, 100 μg/rabbit daily) of the same compound?
Answer: Its value is 3.28 ± 0.35 g.

Question: And the “McPhail Index (0-4) (X ± S.D.)” value ([3]; oral, 100 μg/rabbit daily)?
Answer: The value was 4.00 ± 0.00.

Question: And the “Uterine Weight (X ± S.D.)” value ([3]; sc, 2.5 μg/rabbit daily)?
Answer: The value was 1.31 ± 0.20 g.

Question: What about the “McPhail Index (0-4) (X ± S.D.)” value ([3]; sc, 2.5 μg/rabbit daily) of the same compound?
Answer: The value was 0.21 ± 0.06.

Question: And the “Uterine Weight (X ± S.D.)” value ([3]; sc, 5 μg/rabbit daily)?
Answer: Its value is 1.84 ± 0.48 g.

Question: What about the “McPhail Index (0-4) (X ± S.D.)” value ([3]; sc, 5 μg/rabbit daily) of the same compound?
Answer: The value was 1.29 ± 1.40.

Question: What about the “Uterine Weight (X ± S.D.)” value ([3]; sc, 10 μg/rabbit daily) of the same compound?
Answer: The value was 3.68 ± 0.31 g.

Question: And the “McPhail Index (0-4) (X ± S.D.)” value ([3]; sc, 10 μg/rabbit daily)?
Answer: Its value is 3.92 ± 0.12.

Question: What about the “Uterine Weight (X ± S.D.)” value ([3]; sc, 20 μg/rabbit daily) of the same compound?
Answer: The value was 3.69 ± 0.62 g.

Question: What about the “McPhail Index (0-4) (X ± S.D.)” value ([3]; sc, 20 μg/rabbit daily) of the same compound?
Answer: The value was 4.00 ± 0.00.
